Molecular target: T1, soluble epoxide hydrolase (sEH, EPHX2) (Homo sapiens, UniProt P34913)
T1 sequence (P34913 1-555): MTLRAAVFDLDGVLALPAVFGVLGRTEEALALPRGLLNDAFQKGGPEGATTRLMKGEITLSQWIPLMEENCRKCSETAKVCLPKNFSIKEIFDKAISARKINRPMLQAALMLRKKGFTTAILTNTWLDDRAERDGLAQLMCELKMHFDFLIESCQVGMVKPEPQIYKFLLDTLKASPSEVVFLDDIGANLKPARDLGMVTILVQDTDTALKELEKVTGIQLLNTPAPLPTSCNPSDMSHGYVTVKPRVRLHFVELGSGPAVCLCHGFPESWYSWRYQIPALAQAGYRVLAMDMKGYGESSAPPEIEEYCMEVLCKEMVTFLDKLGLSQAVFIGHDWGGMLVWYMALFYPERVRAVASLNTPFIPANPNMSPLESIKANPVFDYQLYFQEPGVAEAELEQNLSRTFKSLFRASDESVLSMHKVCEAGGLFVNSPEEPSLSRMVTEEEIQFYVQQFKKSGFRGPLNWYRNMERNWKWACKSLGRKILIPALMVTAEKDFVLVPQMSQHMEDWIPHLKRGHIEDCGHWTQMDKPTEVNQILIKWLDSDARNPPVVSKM
Assay: fluorescent kinetic enzyme assay (off-DNA hit resynthesised after DECL selection)
Assay type: biochemical

Ki: 9 ± 2 nM
SMILES: Cc1cccc(CCNC(=O)c2ccc(F)c(CN(C)Cc3cc(C(=O)NCCc4cccc(C)c4)ccc3F)c2)c1 [compound 5, 5]

— publication PMC6706801, “Palladium-Catalyzed Hydroxycarbonylation of (Hetero)aryl Halides for DNA-Encoded Chemical Library Synthesis” (Bioconjugate Chemistry, 2019)
